Experimental data taken from patent US5099015A, “Trifluoromethyl 1-carba(1-dethia)cephems” (Eli Lilly and Company, priority 1991, dated 1992).
≈ marks a conversion by molar mass, not a printed value. Read-outs that look alike come from different tables or passages of the source.

Assays:
Assay in all cases: Agar dilution antibacterial test (MIC)
Format in all cases: cell-based
Serratia SE3 = system: Serratia SE3
Method: (§1) Fresh overnight cultures of test bacteria were diluted to approximately 1x(10)4 cells/microliter and applied in one microliter volumes to the surfaces of the agar plates. The innoculated plates were incubated overnight at 35° C. in ambient air. Minimum inhibitory concentration (mic) endpoints were recorded as the lowest antibiotic concentrations in micrograms per milliliter that inhibited the development of visible growth on the plates. The following summarizes the results of such tests with the compounds of the examples listed above.

[1] = system: Klebsiella pneumoniae KAE
Method: as §1

[2] = system: Staphylococcus epidermidis 222
Method: as §1

[3] = system: Staphylococcus epidermidis EPI270
Method: as §1

[4] = system: Staphylococcus aureus S13E
Method: as §1

Proteus incon PR33 = system: Proteus incon PR33
Method: as §1

[5] = system: Staphylococcus aureus NRRL X1.1
Method: as §1

[6] = system: Klebsiella pneumoniae X26
Method: as §1

Acom AC12 = system: Acom AC12
Method: as §1

Salmonella 1335 = system: Salmonella 1335
Method: as §1

[7] = system: Staphylococcus aureus V41
Method: as §1

Shig sonn. N9 = system: Shig sonn. N9
Method: as §1

Morg morg PR15 = system: Morg morg PR15
Method: as §1

Proteus rett C24 = settings: Proteus rett C24
Method: as §1

Escherichia coli TEM = system: Escherichia coli TEM
Method: as §1

[8] = system: Klebsiella pneumoniae X68
Method: as §1

Serratia X99 = system: Serratia X99
Method: as §1

Salmonella X514 = system: Salmonella X514
Method: as §1

[9] = system: Staphylococcus aureus X400
Method: as §1

[10] = system: Staphylococcus pneumoniae Park 1
Method: as §1

Escherichia coli EC14 = system: Escherichia coli EC14
Method: as §1

Enterobacter cloacae EB5 = system: Enterobacter cloacae EB5
Method: as §1

Escherichia coli N10 = system: Escherichia coli N10
Method: as §1

[11] = system: Enterococcus faecalis 2041
Method: as §1

[12] = system: Enterobacter cloacae 265A
Method: as §1

[13] = system: Enterobacter aerogenes C32
Method: as §1

Enterococcus faecium X66 = system: Enterococcus faecium X66
Method: as §1

[14] = system: Enterobacter aerogenes EB17
Method: as §1

Citro CF17 = system: Citro CF17
Method: as §1

[15] = system: Haemophilus influenzae C.L.
Method: as §1

[16] = system: Staphylococcus pyogenes C203
Method: as §1

[17] = system: Haemophilus influenzae 76
Method: as §1

[18] = Klebsiella aerogenes, read-out: MIC

Nc1nc(C(=NO)C(=O)N[C@@H]2C(=O)N3C(C(=O)O)=C(C(F)(F)F)CC[C@H]23)cs1 [Compound 5]
MIC (Serratia SE3): 8 µg/mL (≈ 19.1 µM)
MIC [1]: .06 µg/mL (≈ 0.143 µM)
MIC [2]: 1 µg/mL (≈ 2.38 µM)
MIC [3]: 4 µg/mL (≈ 9.54 µM)
MIC [4]: 4 µg/mL (≈ 9.54 µM)
MIC (Proteus incon PR33): .25 µg/mL (≈ 0.596 µM)
MIC [5]: 1 µg/mL (≈ 2.38 µM)
MIC [6]: .015 µg/mL (≈ 0.0358 µM)
MIC (Acom AC12): 2 µg/mL (≈ 4.77 µM)
MIC (Salmonella 1335): .06 µg/mL (≈ 0.143 µM)
MIC [7]: 2 µg/mL (≈ 4.77 µM)
MIC (Shig sonn. N9): .06 µg/mL (≈ 0.143 µM)
MIC (Morg morg PR15): 2 µg/mL (≈ 4.77 µM)
MIC (Proteus rett C24): .125 µg/mL (≈ 0.298 µM)
MIC (Escherichia coli TEM): .03 µg/mL (≈ 0.0715 µM)
MIC [8]: .06 µg/mL (≈ 0.143 µM)
MIC (Serratia X99): .5 µg/mL (≈ 1.19 µM)
MIC (Salmonella X514): .015 µg/mL (≈ 0.0358 µM)
MIC [9]: 8 µg/mL (≈ 19.1 µM)
MIC [10]: .015 µg/mL (≈ 0.0358 µM)
MIC (Escherichia coli EC14): .03 µg/mL (≈ 0.0715 µM)
MIC (Enterobacter cloacae EB5): .125 µg/mL (≈ 0.298 µM)
MIC (Escherichia coli N10): .125 µg/mL (≈ 0.298 µM)
MIC [11]: 1 µg/mL (≈ 2.38 µM)
MIC [12]: 16 µg/mL (≈ 38.2 µM)
MIC [13]: .25 µg/mL (≈ 0.596 µM)
MIC (Enterococcus faecium X66): 8 µg/mL (≈ 19.1 µM)
MIC [14]: .06 µg/mL (≈ 0.143 µM)
MIC (Citro CF17): 16 µg/mL (≈ 38.2 µM)

CCS(=O)(=O)Nc1cccc(C(N)C(=O)N[C@@H]2C(=O)N3C(C(=O)O)=C(C(F)(F)F)CC[C@H]23)c1 (some centres unmarked) [Compound 6]
MIC (Serratia SE3): 128 µg/mL (≈ 261 µM)
MIC [1]: 32 µg/mL (≈ 65.2 µM)
MIC [2]: 4 µg/mL (≈ 8.16 µM)
MIC [3]: 8 µg/mL (≈ 16.3 µM)
MIC [4]: 32 µg/mL (≈ 65.2 µM)
MIC (Proteus incon PR33): 16 µg/mL (≈ 32.6 µM)
MIC [5]: 4 µg/mL (≈ 8.16 µM)
MIC [6]: 0.25 µg/mL (≈ 0.51 µM)
MIC (Acom AC12): 64 µg/mL (≈ 130 µM)
MIC (Salmonella 1335): 8 µg/mL (≈ 16.3 µM)
MIC [7]: 8 µg/mL (≈ 16.3 µM)
MIC [15]: 1 µg/mL (≈ 2.04 µM)
MIC (Shig sonn. N9): 4 µg/mL (≈ 8.16 µM)
MIC (Morg morg PR15): 16 µg/mL (≈ 32.6 µM)
MIC (Proteus rett C24): 32 µg/mL (≈ 65.2 µM)
MIC (Escherichia coli TEM): 1 µg/mL (≈ 2.04 µM)
MIC [16]: 0.06 µg/mL (≈ 0.122 µM)
MIC [8]: 1 µg/mL (≈ 2.04 µM)
MIC (Serratia X99): 64 µg/mL (≈ 130 µM)
MIC (Salmonella X514): 1 µg/mL (≈ 2.04 µM)
MIC [9]: 32 µg/mL (≈ 65.2 µM)
MIC [10]: 0.125 µg/mL (≈ 0.255 µM)
MIC (Escherichia coli EC14): 1 µg/mL (≈ 2.04 µM)
MIC (Enterobacter cloacae EB5): 32 µg/mL (≈ 65.2 µM)
MIC (Escherichia coli N10): 8 µg/mL (≈ 16.3 µM)
MIC [11]: 32 µg/mL (≈ 65.2 µM)
MIC [12]: 32 µg/mL (≈ 65.2 µM)
MIC [13]: 16 µg/mL (≈ 32.6 µM)
MIC (Enterococcus faecium X66): 64 µg/mL (≈ 130 µM)
MIC [14]: 16 µg/mL (≈ 32.6 µM)
MIC [17]: 4 µg/mL (≈ 8.16 µM)
MIC (Citro CF17): 32 µg/mL (≈ 65.2 µM)

N[C@@H](C(=O)N[C@@H]1C(=O)N2C(C(=O)O)=C(C(F)(F)F)CC[C@H]12)c1ccc(O)cc1 [Compound 2, [6R,7S]-7β-[D-α-(amino)-4-hydroxyphenylacetylamino]-3-trifluoromethyl-1-carba-1-dethia-3-cephem-4-carboxylic acid]
MIC (Serratia SE3; read-out: MIC): 16 µg/mL (≈ 40.1 µM)
MIC ([1]; read-out: MIC): 2.3 µg/mL (≈ 5.76 µM)
MIC ([2]; read-out: MIC): 2.2 µg/mL (≈ 5.51 µM)
MIC ([3]; read-out: MIC): 4.4 µg/mL (≈ 11 µM)
MIC [4]: 70.4 µg/mL (≈ 176 µM)
MIC (Proteus incon PR33; read-out: MIC): 2.3 µg/mL (≈ 5.76 µM)
MIC ([5]; NRRLX1.1, read-out: MIC): 0.85 µg/mL (≈ 2.13 µM)
MIC ([6]; read-out: MIC): 0.3 µg/mL (≈ 0.751 µM)
MIC (Acom AC12; read-out: MIC): 21.3 µg/mL (≈ 53.3 µM)
MIC (Salmonella 1335; read-out: MIC): 0.58 µg/mL (≈ 1.45 µM)
MIC ([7]; read-out: MIC): 7.2 µg/mL (≈ 18 µM)
MIC ([15]; read-out: MIC): 0.7 µg/mL (≈ 1.75 µM)
MIC (Shig sonn. N9; read-out: MIC): 0.58 µg/mL (≈ 1.45 µM)
MIC (Morg morg PR15; read-out: MIC): 26.7 µg/mL (≈ 66.9 µM)
MIC (Proteus rett C24; read-out: MIC): 6.7 µg/mL (≈ 16.8 µM)
MIC (Escherichia coli TEM; read-out: MIC): 0.75 µg/mL (≈ 1.88 µM)
MIC ([16]; read-out: MIC): 0.025 µg/mL (≈ 0.0626 µM)
MIC ([8]; read-out: MIC): 0.6 µg/mL (≈ 1.5 µM)
MIC (Serratia X99; read-out: MIC): 4.7 µg/mL (≈ 11.8 µM)
MIC (Salmonella X514; read-out: MIC): 0.19 µg/mL (≈ 0.476 µM)
MIC ([9]; read-out: MIC): 102 µg/mL (≈ 255 µM)
MIC ([10]; PARK1, read-out: MIC): 0.2 µg/mL (≈ 0.501 µM)
MIC (Escherichia coli EC14; read-out: MIC): 0.48 µg/mL (≈ 1.2 µM)
MIC (Enterobacter cloacae EB5; read-out: MIC): 4.3 µg/mL (≈ 10.8 µM)
MIC (Escherichia coli N10; read-out: MIC): 0.85 µg/mL (≈ 2.13 µM)
MIC ([11]; read-out: MIC): 22.4 µg/mL (≈ 56.1 µM)
MIC ([12]; read-out: MIC): 2.3 µg/mL (≈ 5.76 µM)
MIC [13, 18]: 2.08 µg/mL (≈ 5.21 µM)
MIC (Enterococcus faecium X66; read-out: MIC): 32 µg/mL (≈ 80.1 µM)
MIC [14, 18]: 1.83 µg/mL (≈ 4.58 µM)
MIC ([17]; read-out: MIC): 0.9 µg/mL (≈ 2.25 µM)
MIC (Citro CF17; read-out: MIC): 5.3 µg/mL (≈ 13.3 µM)

N[C@@H](C(=O)N[C@@H]1C(=O)N2C(C(=O)O)=C(C(F)(F)F)CC[C@H]12)c1ccc(F)cc1 [Compound 3, [6R,7S]-7-β-[D-α-(amino)-4-fluorophenylacetylamino]-3-trifluoromethyl-1-carba-1-dethia-3-cephem-4-carboxylic acid]
MIC (Serratia SE3; read-out: MIC): 32 µg/mL (≈ 79.7 µM)
MIC ([1]; read-out: MIC): 8 µg/mL (≈ 19.9 µM)
MIC ([2]; read-out: MIC): 4 µg/mL (≈ 9.97 µM)
MIC ([3]; read-out: MIC): 4 µg/mL (≈ 9.97 µM)
MIC [4]: 32 µg/mL (≈ 79.7 µM)
MIC (Proteus incon PR33; read-out: MIC): 8 µg/mL (≈ 19.9 µM)
MIC ([5]; NRRLX1.1, read-out: MIC): 1 µg/mL (≈ 2.49 µM)
MIC ([6]; read-out: MIC): 0.5 µg/mL (≈ 1.25 µM)
MIC (Acom AC12; read-out: MIC): 64 µg/mL (≈ 159 µM)
MIC (Salmonella 1335; read-out: MIC): 2 µg/mL (≈ 4.98 µM)
MIC ([7]; read-out: MIC): 16 µg/mL (≈ 39.9 µM)
MIC ([15]; read-out: MIC): 0.5 µg/mL (≈ 1.25 µM)
MIC (Shig sonn. N9; read-out: MIC): 2 µg/mL (≈ 4.98 µM)
MIC (Morg morg PR15; read-out: MIC): 16 µg/mL (≈ 39.9 µM)
MIC (Proteus rett C24; read-out: MIC): 8 µg/mL (≈ 19.9 µM)
MIC (Escherichia coli TEM; read-out: MIC): 1 µg/mL (≈ 2.49 µM)
MIC ([16]; read-out: MIC): 0.06 µg/mL (≈ 0.15 µM)
MIC ([8]; read-out: MIC): 1 µg/mL (≈ 2.49 µM)
MIC (Serratia X99; read-out: MIC): 16 µg/mL (≈ 39.9 µM)
MIC (Salmonella X514; read-out: MIC): 0.5 µg/mL (≈ 1.25 µM)
MIC ([9]; read-out: MIC): 64 µg/mL (≈ 159 µM)
MIC ([10]; PARK1, read-out: MIC): 0.25 µg/mL (≈ 0.623 µM)
MIC (Escherichia coli EC14; read-out: MIC): 1 µg/mL (≈ 2.49 µM)
MIC (Enterobacter cloacae EB5; read-out: MIC): 8 µg/mL (≈ 19.9 µM)
MIC (Escherichia coli N10; read-out: MIC): 4 µg/mL (≈ 9.97 µM)
MIC ([11]; read-out: MIC): 32 µg/mL (≈ 79.7 µM)
MIC ([12]; read-out: MIC): 8 µg/mL (≈ 19.9 µM)
MIC [13, 18]: 8 µg/mL (≈ 19.9 µM)
MIC (Enterococcus faecium X66; read-out: MIC): 32 µg/mL (≈ 79.7 µM)
MIC [14, 18]: 8 µg/mL (≈ 19.9 µM)
MIC ([17]; read-out: MIC): 1 µg/mL (≈ 2.49 µM)
MIC (Citro CF17; read-out: MIC): 8 µg/mL (≈ 19.9 µM)
